The EC50 is the midpoint of the concentration-response curve.

Assay [1] relates to monocytic THP1 cells infected with HIV VSV-G pseudotyped GFP-NEF reporter virus. The assay can be described thus: cells. The assay is classed as cell-based. Conditions: Human immunodeficiency virus 1, THP-1, 24 h.
Assay [2] relates to CD4 cells, isolated from healthy donor PMBCs, infected with HIV VSV-G pseudotyped GFP-GAG reporter virus. The assay can be described thus: tissue or blood. The class given is cell-based. Conditions: Homo sapiens, 72 h.

On to `Cc1cc(/C=C/C#N)cc(C)c1Oc1nc(NC23CC(C#N)(C2)C3)nc2c1ncn2C(C)C` [Compound 113, (E)-3-((6-(4-(2-cyanovinyl)-2,6-dimethylphenoxy)-9-isopropyl-9H-purin-2-yl)amino)bicyclo[1.1.1]pentane-1-carbonitrile], for which the concentration for a half-maximal effect (EC50) in assay [1] was 168 nM; in assay [2], 102 nM.

As for `Cc1cc(/C=C/C#N)cc(C)c1Oc1nc(NC23CC(C#N)(C2)C3)nc2cc[nH]c12` [Compound 115, (E)-3-((4-(4-(2-cyanovinyl)-2,6-dimethylphenoxy)-5H-pyrrolo[3,2-d]pyrimidin-2-yl)amino)bicyclo[1.1.1]pentane-1-carbonitrile], the EC50 in assay [1] was determined as 99.4 nM; in assay [2] it was 111 nM.

For the compound `Cc1cc(/C=C/C#N)cc(C)c1Oc1nc(NC23CC(C#N)(C2)C3)nc2[nH]nc(C)c12` [Compound 119, 3-[[4-[4-[(E)-2-cyanovinyl]-2,6-dimethyl-phenoxy]-3-methyl-1H-pyrazolo[3,4-d]pyrimidin-6-yl]amino]bicyclo[11.1.1]pentane-1-carbonitrile], the EC50 in assay [1] came to 19.3 nM; in assay [2], 16.9 nM.

Take `Cc1cc(/C=C/C#N)cc(C)c1Oc1nc(NC23CC(C#N)(C2)C3)nc2nn(C)cc12` [Compound 120, 3-[[4-[4-[(E)-2-cyanovinyl]-2,6-dimethyl-phenoxy]-2-methyl-pyrazolo[3,4-d]pyrimidin-6-yl]amino]bicyclo[1.1.1]pentane-1-carbonitrile]: the concentration for a half-maximal effect (EC50) in assay [1] worked out at 21.1 nM; in assay [2], 22.9 nM.

As for `Cc1cc(/C=C/C#N)cc(C)c1Oc1nc(NC23CC(C#N)(C2)C3)nc2cnn(C)c12` [Compound 122], the EC50 came out at 54 nM in assay [1] and 47.3 nM in assay [2].

As for `Cc1nc2nc(NC34CC(C#N)(C3)C4)nc(Oc3c(C)cc(/C=C/C#N)cc3C)c2s1` [Compound 124, 3-[[7-[4-[(E)-2-cyanovinyl]-2,6-dimethyl-phenoxy]-2-methyl-thiazolo[4,5-d]pyrimidin-5-yl]amino]bicyclo[11.1.1]pentane-1-carbonitrile], the results for the EC50 in assay [1] and in assay [2] were 61.7 nM and 27 nM, respectively.

As for `Cc1cc(/C=C/C#N)cc(C)c1Oc1nc(NC23CC(C#N)(C2)C3)nc2c1cnn2C` [Compound 128, 3-[[4-[4-[(E)-2-cyanovinyl]-2,6-dimethyl-phenoxy]-1-methyl-pyrazolo[3,4-d]pyrimidin-6-yl]amino]bicyclo[11.1.1]pentane-1-carbonitrile], the EC50 in assay [1] stood at 131 nM; in assay [2], 106 nM.

For `Cc1cc(/C=C/C#N)cc(C)c1Oc1nc(NC23CC(C#N)(C2)C3)nc2c1nnn2C` [Compound 129, 3-[[7-[4-[(E)-2-cyanovinyl]-2,6-dimethyl-phenoxy]-3-methyl-triazolo[4,5-d]pyrimidin-5-yl]amino]bicyclo[11.1.1]pentane-1-carbonitrile], the EC50 in assay [1] stood at 168 nM; in assay [2], 131 nM.

Consider `Cc1cc(/C=C/C#N)cc(C)c1Oc1nc(NC23CC(C#N)(C2)C3)nc2c1CCN2` [Compound 130, 3-[[4-[4-[(E)-2-cyanovinyl]-2,6-dimethyl-phenoxy]-6,7-dihydro-5H-pyrrolo[2,3-d]pyrimidin-2-yl]amino]bicyclo[11.1.1]pentane-1-carbonitrile], for which the EC50 was determined as 221 nM in assay [1] and 56 nM in assay [2].

`Cc1cc(/C=C/C#N)cc(C)c1Oc1nc(NC23CC(C#N)(C2)C3)nc2onc(C)c12` [Compound 142, (E)-3-((4-(4-(2-cyanovinyl)-2,6-dimethylphenoxy)-3-methylisoxazolo[5,4-d]pyrimidin-6-yl)amino)bicyclo[1.1.1]pentane-1-carbonitrile]: the EC50 was 24 nM in assay [1] and 17.6 nM in assay [2].

As for `Cc1cc(/C=C/C#N)cc(C)c1Oc1nc(NC23CC(C#N)(C2)C3)nc2c1c(C)nn2C` [Compound 148, (E)-3-((4-(4-(2-cyanovinyl)-2,6-dimethylphenoxy)-1,3-dimethyl-1H-pyrazolo[3,4-d]pyrimidin-6-yl)amino)bicyclo[1.1.1]pentane-1-carbonitrile], the EC50 in assay [1] worked out at 48.1 nM; in assay [2], 41 nM.

Take `Cc1cc(/C=C/C#N)cc(C)c1Oc1nc(NC23CC(C#N)(C2)C3)nc2c1CN(C)C2` [Compound 150, (E)-3-((4-(4-(2-cyanovinyl)-2,6-dimethylphenoxy)-6-methyl-6,7-dihydro-5H-pyrrolo[3,4-d]pyrimidin-2-yl)amino)bicyclo[1.1.1]pentane-1-carbonitrile]: the results for the EC50 in assay [1] and in assay [2] were 99.2 nM and 110 nM, respectively.

Consider `Cc1cc(/C=C/C#N)cc(C)c1Oc1nc(NC23CC(C4COC4)(C2)C3)nc2[nH]nc(C)c12` [Compound 154, (E)-3-(3,5-dimethyl-4-((3-methyl-6-((3-(oxetan-3-yl)bicyclo[1.1.1]pentan-1-yl)amino)-1H-pyrazolo[3,4-d]pyrimidin-4-yl)oxy)phenyl)acrylonitrile], for which the EC50 in assay [1] was determined as 235 nM; in assay [2] it was 324 nM.
